Measured values taken from PMC3568244 (Molecular and cellular endocrinology, 2012).
Where two headings read alike, the source gives them in different places.

Assays:
Assay in all cases: spectral binding titration
[1] = biological target: T1, CYP11A1 (Bos taurus, UniProt P00189)
T1 sequence (P00189 40-520): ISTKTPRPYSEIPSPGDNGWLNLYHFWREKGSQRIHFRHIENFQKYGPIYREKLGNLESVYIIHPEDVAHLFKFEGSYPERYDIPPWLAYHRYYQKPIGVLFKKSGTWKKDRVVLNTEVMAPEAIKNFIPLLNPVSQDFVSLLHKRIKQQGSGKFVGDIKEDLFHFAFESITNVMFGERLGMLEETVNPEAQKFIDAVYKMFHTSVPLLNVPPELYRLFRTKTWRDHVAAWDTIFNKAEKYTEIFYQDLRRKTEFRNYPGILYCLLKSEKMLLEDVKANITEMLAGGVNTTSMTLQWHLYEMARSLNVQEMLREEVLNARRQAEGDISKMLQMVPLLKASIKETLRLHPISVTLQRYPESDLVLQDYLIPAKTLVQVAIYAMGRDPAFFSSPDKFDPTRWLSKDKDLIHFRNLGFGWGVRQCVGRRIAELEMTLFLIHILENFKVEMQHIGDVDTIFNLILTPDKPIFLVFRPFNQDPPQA

[2] = biological target: T1, CYP11A1; remark: listed apart in the source
[3] = biological target: T1, CYP11A1; remark: listed apart in the source

SMILES	Kd [1]	Kd [2]	other results
Cc1cccc([C@H](C)c2cnc[nH]2)c1C [Dexmedetomidine]	7 µM		
CC(=O)N1CCN(c2ccc(OC[C@H]3CO[C@@](Cn4ccnc4)(c4ccc(Cl)cc4Cl)O3)cc2)CC1 (racemic) [Ketoconazole]		1500 nM	
CC(C)CCC[C@@H](C)[C@H]1CC[C@H]2[C@@H]3CC=C4C[C@@H](O)CC[C@]4(C)[C@H]3CC[C@]12C [cholesterol]			Kd [3]: 200 nM
NC(=NCc1ccc(Cl)cc1)SCCCc1cnc[nH]1 [Clobenpropit]	18 µM		
CC[C@@H]([C@H](C)O)n1ncn(-c2ccc(N3CCN(c4ccc(OC[C@@H]5CO[C@@](Cn6cncn6)(c6ccc(F)cc6F)C5)cc4)CC3)cc2)c1=O [Posaconazole]		1000 nM	
